Results as given in patent US5618812A, “Benzodiazepine derivatives” (Merck Sharp & Dohme, Ltd., priority 1992, dated 1997).
Counter-ions that a name gives are not always drawn. Like-named read-outs stand apart in the source and are kept apart here.

Columns and labels:
CCK-A = molecular target: T1, CCK-A (Rattus norvegicus, UniProt P30551); experiment: biochemical; assay type: binding; conditions: read-out: CCK RECEPTOR BINDING RESULTS IC50 125I-CCK Pancreas
T1 sequence (P30551 1-444): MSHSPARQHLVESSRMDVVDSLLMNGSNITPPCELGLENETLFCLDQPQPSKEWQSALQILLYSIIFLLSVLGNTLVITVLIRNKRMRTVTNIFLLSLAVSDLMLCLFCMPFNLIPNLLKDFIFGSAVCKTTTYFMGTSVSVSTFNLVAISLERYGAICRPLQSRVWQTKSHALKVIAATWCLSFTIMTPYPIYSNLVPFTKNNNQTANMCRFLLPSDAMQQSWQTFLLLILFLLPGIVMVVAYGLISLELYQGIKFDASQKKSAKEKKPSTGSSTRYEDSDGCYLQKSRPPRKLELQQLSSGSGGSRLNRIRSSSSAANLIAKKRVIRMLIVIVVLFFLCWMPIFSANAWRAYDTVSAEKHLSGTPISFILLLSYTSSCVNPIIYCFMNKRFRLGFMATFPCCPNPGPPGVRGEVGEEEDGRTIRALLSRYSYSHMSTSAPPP
Experimental: (§1) The CCK-A and CCK-B antagonising activity of the compounds described herein was evaluated using the assays described in published European patent application no. 0514133. The method essentially involves determining the concentration of the test compound required to displace 50% of the specific ^125 I-CCK from rat pancreas (CCK-A) or guinea pig brain (CCK-B).

CCK-B = molecular target: T2, CCK-B (Cavia porcellus, UniProt H0VZC5); experiment: displacement of specific 125I-CCK from guinea pig brain (CCK-B receptor binding); conditions: read-out: CCK RECEPTOR BINDING RESULTS IC50 125I-CCK Brain
T2 construct: guinea pig brain (CCK-B); from tissue; host or cells: guinea pig brain
T2 sequence (H0VZC5 1-426): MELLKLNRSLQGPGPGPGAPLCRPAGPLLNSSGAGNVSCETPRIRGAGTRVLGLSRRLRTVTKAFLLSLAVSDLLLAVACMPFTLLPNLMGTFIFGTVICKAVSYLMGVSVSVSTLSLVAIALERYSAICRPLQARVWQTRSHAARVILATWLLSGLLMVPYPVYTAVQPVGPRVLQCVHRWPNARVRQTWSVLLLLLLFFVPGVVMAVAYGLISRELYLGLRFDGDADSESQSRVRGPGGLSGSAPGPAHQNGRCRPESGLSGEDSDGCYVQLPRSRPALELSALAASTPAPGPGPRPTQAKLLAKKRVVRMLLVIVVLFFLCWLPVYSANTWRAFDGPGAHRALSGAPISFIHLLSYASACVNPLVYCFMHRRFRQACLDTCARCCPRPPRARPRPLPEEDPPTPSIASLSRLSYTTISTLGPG
Experimental: as §1, with “(CCK-B). The data in Table 1 were obtained for compounds of the Examples.” for “(CCK-B).”

`Cc1cccc(NC(=O)NC2N=C(N(C)CC3CCCCC3)c3ccccc3N(C)C2=O)c1` (racemic) [Example 74] was tested, and the IC50 (CCK-A; rat pancreas (CCK-A), 125I-CCK) was 192 nM and the IC50 (CCK-B) was 7.3 nM.

Work on `Cc1cccc(NC(=O)NC2N=C(N3C[C@H]4CCCC[C@H]4C3)c3ccccc3N(C)C2=O)c1` (single isomer, unassigned; (-)) [Example 58, (-)-N-[2,3-Dihydro-1-methyl-5-(cis-octahydroisoindol-2-yl)-2-oxo-1H-1,4-benzodiazepin-3-yl]-N'-[3-methylphenyl]urea hydrochloride] yielded an IC50 (CCK-A) of 2260 nM and an IC50 (CCK-B) of 2 nM.

With `COC1CCN(C2=NC(NC(=O)Nc3cccc(C)c3)C(=O)N(C)c3ccccc32)CC1` (racemic) [Example 11, N-[3(R,S)-2,3-Dihydro-5-(4-methoxypiperidin-1-yl)-1-methyl-2-oxo-1H-1,4-benzodiazepin-3-yl]N'-[3-methylphenyl]urea] the IC50 (CCK-A; rat pancreas (CCK-A), 125I-CCK) was 25.2 nM and the IC50 (CCK-B) was 4.22 nM.

In the case of `CN1C(=O)C(NC(=O)Nc2ccc3c(c2)CCC3)N=C(N(C)C2CCCCCC2)c2ccccc21` (single isomer, unassigned; (-)) [Example 70, (-)-5-(N-Cycloheptyl-N-methylamino)-2,3-dihydro-1-methyl-2-oxo-1H-1,4-benzodiazepin-3-yl-N'-[5-indanyl]urea. Hydrochloride], the IC50 (CCK-A; rat pancreas (CCK-A), 125I-CCK) is reported as greater than 3000 nM and the IC50 (CCK-B) is reported as 0.61 nM.

With `CN1C(=O)C(NC(=O)c2cc3ccccc3[nH]2)N=C(N2CC3CCC(CC3)C2)c2ccccc21` (single isomer, unassigned; (+)) [Example 89, (+)-N-(5-(3-Azabicyclo[3,2,2]nonan-3-yl)-2,3-ihydro-1-methyl-2-oxo-1H-1,4-benzodiazepin-3-yl)-1H-indole-2-carboxamide dihydrochloride] the IC50 (CCK-A; rat pancreas (CCK-A), 125I-CCK) was 0.26 nM and the IC50 (CCK-B) was 653 nM.
